Experimental findings from patent US7833805B2, “Selectively permeable membranes on porous substrates” (University of Cincinnati, priority 2004, dated 2010) are described below.

The target of assay [1] is T1, gastric H/K ATPase (Sus scrofa, UniProt P19156).
T1 construct: Hog and stimulated rabbit gastric membrane vesicles are isolated according to methods known in the art; from tissue; host or cells: hog gastric membrane vesicles
In words: H+ transport (acidification) by hog gastric H/K ATPase vesicles reconstituted in phospholipid-coated PC filters. It counts as biochemical. The procedure:
(§1) Hog and stimulated rabbit gastric membrane vesicles are isolated according to methods known in the art (Saccomani et al. Biochim. Biophys. Acta 465 (1977) 311-330, Cuppoletti, et al. J. Biol. Chem. 259 (1984) 14952-1 4959). A lipid bilayer is made on 0.4 μm polycarbonate filters (area=0.11 cm^2) in Multiscreen Caco-2 filter plates. […] of 40 mg/ml 3:1 POPS:POPE in n-decane is added to the filter (inner well) and after 30 min 100 mM K-gluconate solution is added to both sides (inner & outer wells). After 2 hrs, resistance is measured with a multimeter and Ag/AgCl electrodes to ensure that a bilayer had formed. The K-gluconate solution in the inner well is removed and 5 μl of hog or stimulated rabbit gastric vesicles are added to the inner well and left for 1 hr. Resistance is then measured in 100 mM K-gluconate, KCL, NaCl and NMDGCI. To measure H^+ transport, 200 μl 10 mM KCL is added to the outer well and 100 μl of 100 mM KCL, 10 mM HEPES pH 7.4 is added to the inner well. pH of the medium in the outer well (pHo) is measured using a PHR-146 pH Electrode (LAZAR Research Labs. Los Angeles, Calif.) and an Accumet pH meter 910 (Fisher, Pittsburgh, Pa.). When the pHo is almost constant, 5 μl 100 mM MGATP solution and 1 μl 10 mg/ml valinomycin are added to the inner well and pHo was followed. […] The change in pHo over time is recorded using AXOTAPE (Union City, Calif.).

For assay [2], the target named is T2, gastric H/K ATPase (Oryctolagus cuniculus, UniProt P27112).
T2 construct: Hog and stimulated rabbit gastric membrane vesicles are isolated according to methods known in the art; from tissue; host or cells: stimulated rabbit gastric membrane vesicles
In words: H+ transport (acidification) by rabbit gastric H/K ATPase vesicles reconstituted in phospholipid-coated PC filters. It counts as biochemical. The following applies: 100 μM SCH28080, rabbit gastric vesicles, P<0.02. The protocol: as §1

Assay [3] deals with gastric proton pump H/K ATPase. Nature of the assay: Example 1: ATP-dependent transport of acid across the bilayer with reconstituted gastric proton pump. It counts as biochemical. The following applies: 100 μm SCH-28080. The source says: This example illustrates an embodiment of bilayer formation, membrane transport reconstitution and testing for functionality. The bilayer is formed over pores of a polycarbonate substrate comprising naturally present pores or drilled holes. Millipore micro porous polycarbonates of various pore sizes (0.4, 3, 5, and 8 μm, e.g.) are commercially available, and a multi-well porous plastic plate with 10-100 μm Lenox-laser drilled holes (1/well) is available from Procter & Gamble Co. and is used for stable bilayer formation. Techniques for bilayer preparation are known by those of ordinary skill in the art. […] The bilayer is verified according to the gramicidin-D (a cation selective antibiotic) method wherein electrical resistance is monitored to observe the effect of gramicidin in reducing the resistance of the membrane. Current flow is measured by placing one electrode in the desired well and one in the surrounding liquid outside the well. […]
The verified bilayer is incubated with vesicles comprising H/K ATPase or Kv1.5 potassium channels. 3 μl of vesicles is added to each well which was determined to have a verified bilayer. Spontaneous fusion with the bilayer is allowed to proceed for 30 minutes to one hour, at which point H/K ATPase induced acidification or potassium ion currents across the bilayer membrane are measured. […] The current is measured as described earlier, after one hour. […]

Assay [4] deals with T3, Kv1.5 K+ channels (Homo sapiens, UniProt P22460).
T3 construct: expressed in transfected cells; host or cells: Ltk- mouse fibroblast cells, stably transfected, dexamethasone-induced; plasma membrane vesicles
In words: Kv1.5 K+ channel vesicles reconstituted in phospholipid bilayers in 50 μm laser-drilled holes of a 96-well plastic plate, current measurement. It is filed as biochemical. The procedure:
The verified bilayer is incubated with vesicles comprising H/K ATPase or Kv1.5 potassium channels. 3 μl of vesicles is added to each well which was determined to have a verified bilayer. Spontaneous fusion with the bilayer is allowed to proceed for 30 minutes to one hour, at which point H/K ATPase induced acidification or potassium ion currents across the bilayer membrane are measured. A desired amount of […] is added to the well (for example, add 90 μl of 100 mM KCl for […], add 92.5 μl of 100 MM KCl for 750 nM). The well tray is placed back into the holder with the 100 mM KCl and current flow is measured as before. Add a desired amount of a suitable 10 μM inhibitor to achieve a final desired concentration with the final volume of 100 μl. When the gastric proton pump H/K ATPase is reconstituted on the bilayer over the pores, ATP-dependent transport of acid across the bilayer is observed that can be inhibited by 100 μm SCH-28080 (a specific inhibitor of the H/K ATPase). The current is measured as described earlier, after one hour. […] Ion currents are not present when the vesicles lack Kv1.5 or when Kv1.5 vesicles are boiled.
To investigate reconstitution of ion channels, plasma membrane vesicles containing Kv1.5, K^+ channels are prepared from an Ltk^− cell line (mouse fibroblast cells) stably overexpressing Kv1.5 K^+ channels under the control of a dexamethasone promoter as previously described (Matsuno, et al. Biochem. Biophys. Acta 1665 (2004) 184-190). Dexamethasone-specific induction of channel expression is totally specific for Kv1.5 channels. […] A 96-well plastic plate with laser drilled pores varying from 10-100 μm (1/well) is used. Well area is 0.3 cm^2. The phospholipid bilayer is made by adding 5 μl of 40 mg/ml 3:1 POPS:POPE in n-decane to each well. After 30 min 100 mM KCl/20 mM HEPES (pH 7.4) is added to both sides of the bilayer (both inner and outer wells). After a further 30 min, the solution from the inner well is removed and plasma membrane vesicles (5 μl) containing Kv1.5 K^+ channels are added to the lipid coated wells. After 30 min, 100 mM KCl/20 mM HEPES (pH 7.4) is returned to the well and currents across the bilayer are measured with an HS-2A headstage and Gene Clamp 500 amplifier (Axon Instruments, Foster City, Calif.) and filtered at 50 Hz. Voltages ranging from −80 to +70 mV are applied in 10-mV increments for 200 msec and electrical currents are recorded using pCLAMP version 5.5. When indicated, compound B, an inhibitor of Kv1.5 K^+ channels (see U.S. Pat. No. 6,174,908) is added.

In assay [5] the target is T3, Kv1.5 K+ channels. In words: Kv1.5 K+ channel vesicles reconstituted in phospholipid-coated leached PLLA membranes, resistance measurement. It is filed as biochemical. The conditions noted are these: 1 μM compound B, KCl, n=8; PL alone 7.39, PL+Kv1.5 vesicles 0.55 MΩ. The protocol:
(§2) Bilayer formation is studied using PC, PETE and PLLA membranes (area=0.3 cm^2). Phospholipid bilayers are made by adding […] of 3:1 POPS:POPE (40 mg/ml) in n-decane to the membranes and waiting for 30 min. 100 mM KCL/10 mM HEPES (pH 7.4), is then added to both sides of the membrane (150 μl inside insert or well; 200 outside solution) and left for 30 minutes. A multimeter and Ag/AgCl reference electrodes are used to measure the resistance across the phospholipid-coated membranes. When gramicidin D is used, it is mixed with the lipids to a final concentration of 1 μg/ml. 10 μl of the lipid/gramicidin mixture is added to the membranes. After 30 minutes medium is added to both sides of the lipid-coated membrane (both inner and outer wells) and left for another 30 minutes. Resistances of the lipid-coated membranes are measured with two different media bathing the lipid bilayer on both sides: 100 mM KCl/10 mM HEPES (pH 7.4) and 100 mMNMDGCI/10 mM HEPES (pH 7.4). Reconstitution of gramicidin D is also done using the 96-well plastic plate with laser drilled holes and current is measured as described below.
Reconstitution of Kv1.5 K^+ channels is also carried out using lipid coated PLLA membranes (area=0.3 cm2) and resistance is measured as described in the previous section. Effects of compound B are also tested.

The nature of assay [6]: Assay of lipid bilayer formation: resistance across phospholipid-coated porous membranes with gramicidin D. The procedure: as §2
Assay [7] in a line: Gramicidin D reconstituted in the phospholipid bilayer in 50 μm holes of the 96-well plastic plate, current measurement. The conditions noted are these: KCl medium, +70 mV. The protocol:
as §2, with “below. […]” for “below.”

Assay [8] is described as follows: Ion flux across the inventive membrane with gramicidin D as ionophore.

T3 sequence (P22460 whole entry): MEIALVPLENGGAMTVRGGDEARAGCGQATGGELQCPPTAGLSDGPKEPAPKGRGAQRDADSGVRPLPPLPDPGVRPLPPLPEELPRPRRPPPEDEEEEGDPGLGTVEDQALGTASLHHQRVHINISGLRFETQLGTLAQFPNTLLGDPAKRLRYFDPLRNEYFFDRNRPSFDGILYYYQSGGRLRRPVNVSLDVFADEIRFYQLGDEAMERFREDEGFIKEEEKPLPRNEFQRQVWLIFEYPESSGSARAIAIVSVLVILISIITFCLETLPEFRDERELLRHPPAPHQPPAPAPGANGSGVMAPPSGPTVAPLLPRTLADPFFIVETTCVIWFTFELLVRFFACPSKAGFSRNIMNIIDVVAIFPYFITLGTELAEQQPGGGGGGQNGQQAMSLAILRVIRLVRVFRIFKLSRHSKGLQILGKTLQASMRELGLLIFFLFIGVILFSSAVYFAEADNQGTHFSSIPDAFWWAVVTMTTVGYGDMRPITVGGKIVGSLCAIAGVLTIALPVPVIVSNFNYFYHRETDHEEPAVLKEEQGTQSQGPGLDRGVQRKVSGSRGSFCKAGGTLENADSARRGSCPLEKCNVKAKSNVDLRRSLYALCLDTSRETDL
T1 sequence (P19156 whole entry): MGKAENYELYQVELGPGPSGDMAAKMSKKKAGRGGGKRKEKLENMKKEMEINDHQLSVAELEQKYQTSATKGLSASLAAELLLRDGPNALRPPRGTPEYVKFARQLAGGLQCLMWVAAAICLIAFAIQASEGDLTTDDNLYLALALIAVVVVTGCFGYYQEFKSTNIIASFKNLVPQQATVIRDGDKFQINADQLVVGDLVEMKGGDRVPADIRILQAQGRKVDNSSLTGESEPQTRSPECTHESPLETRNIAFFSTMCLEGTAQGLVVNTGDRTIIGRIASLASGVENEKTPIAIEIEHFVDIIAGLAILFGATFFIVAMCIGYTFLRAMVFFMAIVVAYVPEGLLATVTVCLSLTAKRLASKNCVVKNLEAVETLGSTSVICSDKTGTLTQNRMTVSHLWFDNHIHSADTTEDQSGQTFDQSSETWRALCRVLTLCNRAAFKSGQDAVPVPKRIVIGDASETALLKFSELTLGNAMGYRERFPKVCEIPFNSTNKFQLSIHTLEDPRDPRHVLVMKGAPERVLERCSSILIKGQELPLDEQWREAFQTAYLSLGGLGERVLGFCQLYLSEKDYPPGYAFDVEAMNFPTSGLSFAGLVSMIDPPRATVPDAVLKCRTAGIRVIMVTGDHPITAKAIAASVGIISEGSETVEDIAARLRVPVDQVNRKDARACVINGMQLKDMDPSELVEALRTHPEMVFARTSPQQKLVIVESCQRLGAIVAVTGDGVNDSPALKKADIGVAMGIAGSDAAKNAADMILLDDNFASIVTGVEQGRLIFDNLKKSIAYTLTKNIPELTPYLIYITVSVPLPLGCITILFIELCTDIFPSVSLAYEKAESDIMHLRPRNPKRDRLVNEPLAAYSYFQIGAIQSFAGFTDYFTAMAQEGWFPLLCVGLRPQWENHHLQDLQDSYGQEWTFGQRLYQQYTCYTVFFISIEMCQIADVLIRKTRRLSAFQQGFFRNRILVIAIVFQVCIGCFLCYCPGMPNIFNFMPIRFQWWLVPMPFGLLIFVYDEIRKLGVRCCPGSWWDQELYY
T1 sequence (P18434 whole entry partner): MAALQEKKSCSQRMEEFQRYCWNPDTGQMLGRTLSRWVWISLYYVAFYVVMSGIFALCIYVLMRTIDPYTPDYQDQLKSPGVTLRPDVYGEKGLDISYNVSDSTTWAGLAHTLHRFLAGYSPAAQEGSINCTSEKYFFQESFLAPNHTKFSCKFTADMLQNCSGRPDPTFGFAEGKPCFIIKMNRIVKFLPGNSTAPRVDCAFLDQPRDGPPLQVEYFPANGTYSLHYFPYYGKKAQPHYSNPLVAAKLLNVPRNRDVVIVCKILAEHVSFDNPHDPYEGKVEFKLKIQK
T2 sequence (P27112 whole entry): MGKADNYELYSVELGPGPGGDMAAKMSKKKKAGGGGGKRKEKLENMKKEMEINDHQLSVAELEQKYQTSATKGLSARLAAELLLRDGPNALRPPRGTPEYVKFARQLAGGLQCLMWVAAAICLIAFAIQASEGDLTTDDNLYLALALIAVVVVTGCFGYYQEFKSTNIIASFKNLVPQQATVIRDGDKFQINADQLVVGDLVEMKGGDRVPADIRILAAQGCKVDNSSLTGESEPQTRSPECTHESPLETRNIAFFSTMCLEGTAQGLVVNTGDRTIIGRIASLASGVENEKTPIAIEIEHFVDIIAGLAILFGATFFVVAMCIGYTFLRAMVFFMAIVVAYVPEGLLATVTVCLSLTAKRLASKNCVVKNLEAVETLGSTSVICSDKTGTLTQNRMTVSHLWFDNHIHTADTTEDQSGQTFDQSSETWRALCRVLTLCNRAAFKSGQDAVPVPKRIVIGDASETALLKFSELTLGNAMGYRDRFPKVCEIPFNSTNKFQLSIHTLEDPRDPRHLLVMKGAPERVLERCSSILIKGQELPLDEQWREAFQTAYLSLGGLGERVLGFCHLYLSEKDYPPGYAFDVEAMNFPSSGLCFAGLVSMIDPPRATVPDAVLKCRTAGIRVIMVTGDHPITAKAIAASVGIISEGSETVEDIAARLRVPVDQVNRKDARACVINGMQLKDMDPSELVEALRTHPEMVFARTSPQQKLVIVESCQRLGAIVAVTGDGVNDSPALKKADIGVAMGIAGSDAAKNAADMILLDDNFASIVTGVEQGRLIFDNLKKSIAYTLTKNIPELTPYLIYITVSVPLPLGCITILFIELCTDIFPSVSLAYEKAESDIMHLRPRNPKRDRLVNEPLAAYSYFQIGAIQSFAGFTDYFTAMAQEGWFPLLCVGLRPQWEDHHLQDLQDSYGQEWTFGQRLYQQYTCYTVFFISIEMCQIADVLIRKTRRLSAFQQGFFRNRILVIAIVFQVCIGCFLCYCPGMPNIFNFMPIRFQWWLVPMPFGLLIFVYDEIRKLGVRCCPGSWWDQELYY
T2 sequence (P18597 whole entry partner): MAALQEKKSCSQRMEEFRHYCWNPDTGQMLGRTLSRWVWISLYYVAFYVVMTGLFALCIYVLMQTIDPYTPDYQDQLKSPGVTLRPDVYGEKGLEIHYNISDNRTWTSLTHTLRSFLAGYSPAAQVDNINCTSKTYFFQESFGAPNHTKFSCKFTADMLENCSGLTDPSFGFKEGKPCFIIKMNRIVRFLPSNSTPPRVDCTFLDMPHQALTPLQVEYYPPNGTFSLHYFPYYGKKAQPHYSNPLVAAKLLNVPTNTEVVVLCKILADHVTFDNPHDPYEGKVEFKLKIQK

Take `Cc1nc2c(OCc3ccccc3)cccn2c1CC#N` [SCH28080]: the “effect on H+ flux (rate of acidification)” value in assay [1] (100 μM SCH28080, hog gastric vesicles, P<0.05) is given as “significantly reduces”; in assay [2] it was “significantly reduces”. Besides, the “effect on acidification of outer well medium (representative experiment)” value in assay [1] (100 μM SCH28080, hog vesicles, 5 mM MgATP, 100 μg/ml valinomycin) is on record as “blocks acidification”. In addition, the “effect on ATP-dependent transport of acid across the bilayer” value in assay [3] is reported as “inhibited”.
In general, IC50 refers to the concentration at which inhibition is half-maximal. Consider `COc1ccc(CCN2C(=O)CSC2c2ccc(C)c(C)c2)cc1` (centres unmarked) [compound B, 2-(3,4-dimethyphenyl)-3-[2-(4-methoxyphenyl)ethyl]-thiazolidin4-one], for which the “effect on Kv1.5 K+ channel currents (I-V curve)” value in assay [4] (200 nM and 500 nM compound B) is “inhibited”. For the same compound, in assay [4] (1 μM compound B, P<0.001), the “effect on Kv1.5 K+ current after addition of Kv1.5 vesicles” value is on record as “inhibited”. Further, the “effect on potassium ion currents of membrane fused with Kv1.5 vesicles (Example 1)” value in assay [4] (concentration not given) is given as “inhibited”. In assay [4] (sigmoidal dose-response plot, n=6, 100 mM KCl/20 mM HEPES pH 7.4, read-out: IC50, Kv1.5-mediated K+ currents expressed as ΔI at 70 mV as % maximum), the IC50 is 170 ± 40 nM. In addition, the “resistance of PLLA membrane + phospholipids + Kv1.5 vesicles after inhibitor” value in assay [5] is reported as 4.13±0.52 MΩ.
Turning to gramicidin D, the “resistance with gramicidin D, PETE membranes” value in assay [6] (KCl, n=5, PL alone 39.25 MΩ) was found to be 5.41±1.11 MΩ. Also, in assay [6] (NMDGCl), the “change of resistance with gramicidin D, PETE membranes” value is “did not change”. Besides, the “resistance after gramicidin D, PC filters with 3, 5 and 8 μm pores” value in assay [6] (presence of K+ (100 mM KCl), P<0.005) is on record as “virtually zero”. For the same compound, in assay [6] (presence of K+, n=6, PL alone 11.38 MΩ), the “resistance on addition of gramicidin D, leached PLLA membranes” value is recorded as 0.23±0.15 MΩ. Also, in assay [6] (presence of NMDG+), the “change of resistance on addition of gramicidin D, leached PLLA membranes” value is recorded as “unaffected”. Moreover, the “reduction of resistance by gramicidin D, PC filters with 3, 5 and 8 μm pores” value in assay [6] (presence of NMDG+ (impermeant cation)) was “not”. Also, the “current with gramicidin D” value in assay [7] is “about 30 μVA”. Moreover, the “flux across the inventive membrane” value in assay [8] is reported as 10^8 ions per second, per gramicidin D molecule.
